Data on two molecules can be found in patent publication US9238637B2, “Stable polymorphic forms of compound as hypoxia mimetics, and uses thereof” (BEIJING BETTA PHARMACEUTICALS CO., LTD, priority 2011, dated 2016).

The test system of series [1] is adenine-induced renal anemic rats. Description: Efficacy studies in adenine-induced renal anemic rats. Type of series: in vivo, Wistar rats. On the procedure:
Six-week-old male Wistar rats were divided to the control group and treatment groups. After given the standard chow for 10 days, the control group continued on the standard chow while the treatment groups were given the standard chow with the addition of 0.75% adenine for 30 days when the treatment groups developed anemia. All the groups were then switched back to the standard chow, and the treatment groups were dosed orally with vehicle or a suspension of one crystal form of the compound in 0.5% CMC-Na at 20, 40 or 80 mg/kg once a day for 4 weeks. Blood samples were obtained from the orbital venous plexus on days 0, 5, 12, 19 and 27. An Automated Hematology Analyzer MEK-6318K was used to determine hematological parameters such as erythrocyte counts (RBC), hemoglobin concentration (HGB), hematocrit value (HCT).

Another series has as its system Erythropoietin (EPO). Description: Determination of erythropoietin (EPO) induction in normal mice. Type of series: in vivo. The settings on record: male C57BL/6 mice, oral suspension in 0.5% CMC, 60 mg/kg, serum 6 hours after dosing. As for the experimental part:
Eight-week-old male C57BL/6 mice were dosed orally with a suspension of one crystal form of the compound in 0.5% CMC at 20, 60 and 100 mg/kg. Blood samples were obtained from the orbital venous plexus 6 hours after dosing and serum was collected (see also, Robinson A, et al., Gastroenterology. 2008, 134:145-55; Hsieh M M, et al., Blood. 2007, 110:2140-7). Samples were analyzed for EPO by electrochemiluminescence-based immunoassay (MSD) according to manufacturer's instructions. The inducted EPO when the Crystalline Form III in this invention was used in suspension was determined to be above 35 folds over that of the vehicle group without induction at the dosage of 60 mg/kg.

A short description of series [2]: Stability determination of crystal forms (slurry in ethyl acetate, XRPD). The series is classed as physicochemical. As to conditions: 72 hrs. As for the experimental part:
100 mg of the compound of Formula I prepared from the method disclosed in Example 1 above (mixed crystal forms) was added into 2 mL of Ethyl Acetate and stirred at room temperature for 72 hrs. After centrifugation and drying, the resulted crystal form was determined by XRPD to be purely the Crystalline Form III.
50 mg of the compound of Formula I prepared from the method disclosed in Example 1 above (mixed crystal forms) was added into 1 mL of Ethyl Acetate and stirred at 50° C. for 72 hrs. After centrifugation and drying, the resulted crystal form was determined by XRPD to be purely the Crystalline Form III.

A further series has as its target T1, full length PHD2 (Homo sapiens, UniProt Q9GZT9).
T1 construct: containing 600 nM full length PHD2
Nature of the series: Assay of HIF-PHD2 enzyme activity (homogeneous TR-FRET). The series is classed as biochemical. The settings on record: 600 nM full length PHD2, 0.2 μM 2-oxoglutarate, 0.5 μM HIF-1α peptide, 2 hrs room temperature. As for the experimental part:
HIF-PHD2 activity was measured using homogeneous TR-FRET technology (see also, US2008/004817; Dao J H et al., Anal Biochem. 2009, 384:213-23). To each well of a ½Area 96-well plate was added 2 μL DMSO solution of test compound and 40 μL of assay buffer (50 mM Tris PH7.4/0.01% Tween-20/0.1 mg/ml BSA/1 mM Sodium ascorbate/20 μg/ml Catalase/10 μM FeSO4) containing 600 nM full length PHD2. After a 30 min preincubation at room temperature, the enzymatic reactions were initiated by the addition of 8 μL of substrates (final concentrations of 0.2 μM 2-oxoglutarate and 0.5 μM HIF-1α peptide biotinyl-DLDLEMLAPYIPMDDDFQL). After 2 hrs. at room temperature, the reactions were terminated and signals were developed by the addition of a 50 μL quench/detection mix to a final concentration of 1 mM ortho-phenanthroline, 0.1 mM EDTA, 0.5 nM anti-(His)6LANCE reagent, 100 nM AF647-labeled Streptavidin, and 30 nM (His)6-VHL-elonginB-elonginC complex. The ratio of time resolved fluorescence signals at 665 and 620 nm was determined, and percent inhibition was calculated relative to an uninhibited control sample run in parallel.
On the technique in general: In TR-FRET formats the signal depends on donor and acceptor labels being close together.

T1 sequence (Q9GZT9 whole entry, species assumed): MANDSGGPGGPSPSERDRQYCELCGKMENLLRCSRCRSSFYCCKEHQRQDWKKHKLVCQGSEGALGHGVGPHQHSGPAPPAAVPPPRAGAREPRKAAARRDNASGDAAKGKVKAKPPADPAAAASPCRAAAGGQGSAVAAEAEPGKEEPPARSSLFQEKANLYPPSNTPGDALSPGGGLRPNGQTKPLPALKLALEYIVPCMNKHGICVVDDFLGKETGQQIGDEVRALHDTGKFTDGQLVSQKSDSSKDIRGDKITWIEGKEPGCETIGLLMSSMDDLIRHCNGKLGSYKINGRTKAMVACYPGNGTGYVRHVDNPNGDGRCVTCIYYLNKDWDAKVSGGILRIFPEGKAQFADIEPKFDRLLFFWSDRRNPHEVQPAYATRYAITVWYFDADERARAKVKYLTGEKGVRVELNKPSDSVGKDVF

On to `Cc1cccc(-c2cccc3c(O)c(C(=O)NCC(=O)O)c(=O)oc23)c1` [Crystalline Form III, N-[(4-hydroxy-2-oxo-8-(3-methyl-phenyl)-2H-3-coloralkenyl)carbonyl]glycine], for which the HGB in series [1] (20 mg/kg oral once a day, Day 0) came to 88.0 g/L; in series [1] (20 mg/kg oral once a day, Day 5), 60.7 g/L; in series [1] (20 mg/kg oral once a day, Day 12) it was 64.3 g/L; in series [1] (20 mg/kg oral once a day, Day 19), 73.3 g/L; in series [1] (20 mg/kg oral once a day, Day 27), 90.7 g/L; in series [1] (40 mg/kg oral once a day, Day 0), 87.4 g/L. Also, the HGB in series [1] (40 mg/kg oral once a day, Day 5) was found to be 69.4 g/L; in series [1] (40 mg/kg oral once a day, Day 12), 87.2 g/L; in series [1] (40 mg/kg oral once a day, Day 19), 89.7 g/L; in series [1] (40 mg/kg oral once a day, Day 27) it was 103.6 g/L; in series [1] (80 mg/kg oral once a day, Day 0), 86.8 g/L; in series [1] (80 mg/kg oral once a day, Day 5), 76.7 g/L. Further, the HGB in series [1] (80 mg/kg oral once a day, Day 12) came out at 111.0 g/L; in series [1] (80 mg/kg oral once a day, Day 19), 122.0 g/L; in series [1] (80 mg/kg oral once a day, Day 27), 139.0 g/L. Also, in series [1] (20, 40 or 80 mg/kg oral once a day for 4 weeks), the “effect on HGB levels (in words)” value is “improved the HGB levels in the animals and corrected them toward normal”. In the series with Erythropoietin (EPO), the “inducted EPO over that of the vehicle group” value is reported as “above 35 folds”. For the same molecule, the “thermodynamic stability of crystal form” value in series [2] (50° C.) and in series [2] (room temperature) was “thermodynamically the more stable crystal form” each time.
A word on the IC50: it is the concentration at which inhibition is half-maximal. Read a high IC50 as weaker potency in that assay. Molecule `Cc1cccc(-c2cccc3c(O)c(C(=O)NCC(=O)O)c(=O)oc23)c1` [compound of Formula I, N-[(4-hydroxy-2-oxo-8-(3-methyl-phenyl)-2H-3-coloralkenyl)carbonyl]glycine] came in with an IC50 against full length PHD2 of roughly 150 nM.
